# Laboratory results: paper PMC4808398 (Cell, 2016)
# Assays:
# [1] = biological target: CASTOR1 homodimer-GATOR2 complex (Homo sapiens, UniProt Q8WTX7); format: binding
# [2] = biological target: CASTOR1-CASTOR2 heterodimer-GATOR2 complex (Homo sapiens, UniProt Q8WTX7); format: binding
# Chain of CASTOR1 homodimer-GATOR2 complex (Q8WTX7 whole entry): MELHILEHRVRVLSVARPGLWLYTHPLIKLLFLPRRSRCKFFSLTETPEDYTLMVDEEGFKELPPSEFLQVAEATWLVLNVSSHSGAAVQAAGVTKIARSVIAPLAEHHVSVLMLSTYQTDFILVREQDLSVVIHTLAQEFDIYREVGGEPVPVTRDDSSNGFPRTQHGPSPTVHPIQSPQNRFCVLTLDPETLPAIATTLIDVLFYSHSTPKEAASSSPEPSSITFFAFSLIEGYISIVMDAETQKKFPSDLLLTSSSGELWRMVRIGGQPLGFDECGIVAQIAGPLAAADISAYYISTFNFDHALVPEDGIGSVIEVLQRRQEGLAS
# Chain of CASTOR1 homodimer-GATOR2 complex (Q9NXC5 whole entry partner): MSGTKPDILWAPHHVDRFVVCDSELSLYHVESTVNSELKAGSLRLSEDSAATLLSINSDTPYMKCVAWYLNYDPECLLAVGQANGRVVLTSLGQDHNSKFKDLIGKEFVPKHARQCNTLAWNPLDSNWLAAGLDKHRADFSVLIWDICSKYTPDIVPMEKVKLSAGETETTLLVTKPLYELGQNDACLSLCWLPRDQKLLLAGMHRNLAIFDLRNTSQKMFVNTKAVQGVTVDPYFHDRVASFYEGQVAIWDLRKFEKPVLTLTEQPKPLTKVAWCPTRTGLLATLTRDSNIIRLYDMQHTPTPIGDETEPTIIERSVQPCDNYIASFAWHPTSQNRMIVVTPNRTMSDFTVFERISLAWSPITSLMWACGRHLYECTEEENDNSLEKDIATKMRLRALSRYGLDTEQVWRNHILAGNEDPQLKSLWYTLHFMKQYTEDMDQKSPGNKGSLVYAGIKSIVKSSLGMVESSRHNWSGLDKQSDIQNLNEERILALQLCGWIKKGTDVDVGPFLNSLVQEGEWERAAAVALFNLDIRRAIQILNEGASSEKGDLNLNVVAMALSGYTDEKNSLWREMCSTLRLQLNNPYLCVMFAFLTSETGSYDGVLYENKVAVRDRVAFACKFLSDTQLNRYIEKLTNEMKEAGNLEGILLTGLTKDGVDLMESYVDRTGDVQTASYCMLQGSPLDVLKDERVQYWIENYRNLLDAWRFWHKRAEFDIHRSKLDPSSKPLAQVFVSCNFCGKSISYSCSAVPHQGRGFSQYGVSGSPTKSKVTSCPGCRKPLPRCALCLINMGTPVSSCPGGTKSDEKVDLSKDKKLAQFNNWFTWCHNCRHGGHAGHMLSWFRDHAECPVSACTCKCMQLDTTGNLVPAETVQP
# Chain of CASTOR1 homodimer-GATOR2 complex (Q96S15 whole entry partner): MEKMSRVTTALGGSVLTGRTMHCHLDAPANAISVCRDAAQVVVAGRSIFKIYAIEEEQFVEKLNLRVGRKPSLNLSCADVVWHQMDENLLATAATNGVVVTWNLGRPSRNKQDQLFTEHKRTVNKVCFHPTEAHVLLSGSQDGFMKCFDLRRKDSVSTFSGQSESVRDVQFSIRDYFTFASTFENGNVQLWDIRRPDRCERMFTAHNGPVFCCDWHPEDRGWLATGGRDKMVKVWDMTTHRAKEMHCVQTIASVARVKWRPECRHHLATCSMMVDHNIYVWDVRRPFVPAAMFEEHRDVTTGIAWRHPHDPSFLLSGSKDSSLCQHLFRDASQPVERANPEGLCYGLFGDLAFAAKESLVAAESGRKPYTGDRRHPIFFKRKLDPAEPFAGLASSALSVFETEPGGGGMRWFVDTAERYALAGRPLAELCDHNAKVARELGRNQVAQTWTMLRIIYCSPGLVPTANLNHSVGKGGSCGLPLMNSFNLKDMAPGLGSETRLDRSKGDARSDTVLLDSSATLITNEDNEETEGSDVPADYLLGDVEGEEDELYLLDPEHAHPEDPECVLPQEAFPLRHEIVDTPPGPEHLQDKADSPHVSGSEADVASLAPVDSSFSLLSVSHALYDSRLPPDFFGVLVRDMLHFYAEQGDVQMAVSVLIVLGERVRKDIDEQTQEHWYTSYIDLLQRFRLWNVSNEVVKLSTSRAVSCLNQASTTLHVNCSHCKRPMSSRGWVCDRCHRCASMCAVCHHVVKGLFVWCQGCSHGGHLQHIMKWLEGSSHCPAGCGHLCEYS
# Chain of CASTOR1 homodimer-GATOR2 complex (Q6PJI9 whole entry partner): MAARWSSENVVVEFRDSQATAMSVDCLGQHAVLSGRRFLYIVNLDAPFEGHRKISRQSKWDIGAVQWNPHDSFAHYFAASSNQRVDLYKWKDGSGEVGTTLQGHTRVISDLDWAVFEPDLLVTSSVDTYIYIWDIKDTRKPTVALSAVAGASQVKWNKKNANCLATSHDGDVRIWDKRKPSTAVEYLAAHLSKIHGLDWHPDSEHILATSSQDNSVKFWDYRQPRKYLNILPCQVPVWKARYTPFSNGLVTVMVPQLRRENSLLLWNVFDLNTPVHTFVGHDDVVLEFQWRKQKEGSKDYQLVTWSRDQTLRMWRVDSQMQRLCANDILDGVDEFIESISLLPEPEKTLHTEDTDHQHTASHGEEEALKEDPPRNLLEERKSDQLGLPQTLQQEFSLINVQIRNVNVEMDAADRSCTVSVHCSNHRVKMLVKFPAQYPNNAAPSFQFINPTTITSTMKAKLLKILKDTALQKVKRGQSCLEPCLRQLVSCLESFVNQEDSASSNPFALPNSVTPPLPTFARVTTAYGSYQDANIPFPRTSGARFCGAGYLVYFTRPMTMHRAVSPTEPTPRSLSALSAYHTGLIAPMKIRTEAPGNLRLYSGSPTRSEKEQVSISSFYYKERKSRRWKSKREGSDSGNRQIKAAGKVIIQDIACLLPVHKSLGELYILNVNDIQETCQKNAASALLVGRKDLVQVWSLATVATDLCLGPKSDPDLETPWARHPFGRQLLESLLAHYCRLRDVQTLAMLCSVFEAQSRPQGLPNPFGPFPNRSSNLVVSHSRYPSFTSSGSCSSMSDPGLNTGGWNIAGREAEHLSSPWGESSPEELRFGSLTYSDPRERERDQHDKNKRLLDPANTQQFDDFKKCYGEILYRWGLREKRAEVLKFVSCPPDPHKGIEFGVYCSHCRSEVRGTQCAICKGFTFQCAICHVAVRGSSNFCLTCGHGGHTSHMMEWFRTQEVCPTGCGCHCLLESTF
# Chain of CASTOR1 homodimer-GATOR2 complex (Q96EE3 whole entry partner): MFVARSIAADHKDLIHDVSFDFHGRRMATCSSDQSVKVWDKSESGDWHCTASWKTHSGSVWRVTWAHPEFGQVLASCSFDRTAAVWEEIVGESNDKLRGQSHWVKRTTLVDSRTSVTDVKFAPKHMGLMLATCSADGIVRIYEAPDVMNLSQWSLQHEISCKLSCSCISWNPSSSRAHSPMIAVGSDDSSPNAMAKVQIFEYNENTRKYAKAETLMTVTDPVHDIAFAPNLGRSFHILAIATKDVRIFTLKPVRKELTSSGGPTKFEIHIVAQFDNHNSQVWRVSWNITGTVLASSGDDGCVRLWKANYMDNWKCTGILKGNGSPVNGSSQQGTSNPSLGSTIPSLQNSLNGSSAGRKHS
# Chain of CASTOR1 homodimer-GATOR2 complex (P55735 2-322 partner): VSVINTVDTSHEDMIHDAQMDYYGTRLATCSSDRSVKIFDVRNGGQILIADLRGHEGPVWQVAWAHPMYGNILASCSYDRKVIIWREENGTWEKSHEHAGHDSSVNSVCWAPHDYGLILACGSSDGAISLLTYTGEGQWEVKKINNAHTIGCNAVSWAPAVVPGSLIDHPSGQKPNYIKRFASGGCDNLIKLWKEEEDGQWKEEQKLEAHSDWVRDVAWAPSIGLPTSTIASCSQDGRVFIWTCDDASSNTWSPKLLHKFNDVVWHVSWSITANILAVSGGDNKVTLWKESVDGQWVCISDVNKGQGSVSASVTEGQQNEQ
compound,measurement,setting,value
N=C(N)NCCC[C@H](N)C(=O)O [arginine],IC50,[1],20 to 40 µM
same,IC50,[2],20 to 40 µM
